Measured values: US6372446B1, “Method of selectively determining a fungal biomass” (Mycometer ApS, priority 1997, dated 2002)

Assays:
Assay in all cases: Screening of fungi for enzyme activity with 4-methylumbelliferone-labelled substrates
Assay type in all cases: cell-based
[1] = tested on: Aureobasidium pullulans (QM 3092); conditions: substrate 10 μM, 25° C., pH 5; for Enzyme activity: amount of released 4-methylumbelliferone during 5 hours of incubation: Aureobasidium pulluians (QM 3092), vegetable juice medium; for Enzyme activity: amount of released 4-methylumbelliferone: Aureobasidium pullulans (QM 3092), mineral medium
[2] = tested on: Ascobolus crenulatus (AAS 1); conditions: substrate 10 μM, 25° C., pH 5; for Enzyme activity: amount of released 4-methylumbelliferone: mineral medium; for Enzyme activity: amount of released 4-methylumbelliferone during 5 hours of incubation: vegetable juice medium
[3] = tested on: Penicillium solitum (IBT 13771); conditions: substrate 10 μM, 25° C., pH 5; for Enzyme activity: amount of released 4-methylumbelliferone: mineral medium; for Enzyme activity: amount of released 4-methylumbelliferone during 5 hours of incubation: vegetable juice medium
[4] = tested on: Rhizomucor pusillus (AAS 300); conditions: substrate 10 μM, 25° C., pH 5; for Enzyme activity: amount of released 4-methylumbelliferone: mineral medium; for Enzyme activity: amount of released 4-methylumbelliferone during 5 hours of incubation: vegetable juice medium
[5] = tested on: Mucor racemosus (AAS 310); conditions: substrate 10 μM, 25° C., pH 5; for Enzyme activity: amount of released 4-methylumbelliferone: mineral medium; for Enzyme activity: amount of released 4-methylumbelliferone during 5 hours of incubation: vegetable juice medium
[6] = tested on: Penicillium commune (IBT 13713); conditions: substrate 10 μM, 25° C., pH 5; for Enzyme activity: amount of released 4-methylumbelliferone: mineral medium; for Enzyme activity: amount of released 4-methylumbelliferone during 5 hours of incubation: vegetable juice medium
[7] = tested on: Trametes versicolor (AGM 24); conditions: substrate 10 μM, 25° C., pH 5; for Enzyme activity: amount of released 4-methylumbelliferone: mineral medium; for Enzyme activity: amount of released 4-methylumbelliferone during 5 hours of incubation: vegetable juice medium
[8] = tested on: Paecilomyces farinosus (AGM 5); conditions: substrate 10 μM, 25° C., pH 5; for Enzyme activity: amount of released 4-methylumbelliferone: mineral medium; for Enzyme activity: amount of released 4-methylumbelliferone during 5 hours of incubation: vegetable juice medium
[9] = tested on: Sodaria fimicola (AAS 17); conditions: substrate 10 μM, 25° C., pH 5; for Enzyme activity: amount of released 4-methylumbelliferone: mineral medium; for Enzyme activity: amount of released 4-methylumbelliferone during 5 hours of incubation: vegetable juice medium
[10] = tested on: Eurotium sp. (AAS 36); conditions: substrate 10 μM, 25° C., pH 5; for Enzyme activity: amount of released 4-methylumbelliferone: mineral medium; for Enzyme activity: amount of released 4-methylumbelliferone during 5 hours of incubation: vegetable juice medium
[11] = tested on: Aspergillus oryzae (AGM 11); conditions: substrate 10 μM, 25° C., pH 5; for Enzyme activity: amount of released 4-methylumbelliferone: mineral medium; for Enzyme activity: amount of released 4-methylumbelliferone during 5 hours of incubation: vegetable juice medium
[12] = tested on: Aspergillus versicolor (IBT 13738); conditions: substrate 10 μM, 25° C., pH 5; for Enzyme activity: amount of released 4-methylumbelliferone: mineral medium; for Enzyme activity: amount of released 4-methylumbelliferone during 5 hours of incubation: vegetable juice medium
[13] = tested on: Cladosporium herbarum (AGM 8); conditions: substrate 10 μM, 25° C., pH 5; for Enzyme activity: amount of released 4-methylumbelliferone: mineral medium; for Enzyme activity: amount of released 4-methylumbelliferone during 5 hours of incubation: vegetable juice medium
[14] = tested on: Schizophyllum commune (AGM 25); conditions: substrate 10 μM, 25° C., pH 5; for Enzyme activity: amount of released 4-methylumbelliferone: mineral medium; for Enzyme activity: amount of released 4-methylumbelliferone during 5 hours of incubation: vegetable juice medium

| SMILES | Enzyme activity: amount of released 4-methylumbelliferone during 5 hours of incubation [1] | Enzyme activity: amount of released 4-methylumbelliferone [1] | Enzyme activity: amount of released 4-methylumbelliferone [2] | Enzyme activity: amount of released 4-methylumbelliferone during 5 hours of incubation [2] | Enzyme activity: amount of released 4-methylumbelliferone [3] | Enzyme activity: amount of released 4-methylumbelliferone during 5 hours of incubation [3] | Enzyme activity: amount of released 4-methylumbelliferone [4] | Enzyme activity: amount of released 4-methylumbelliferone during 5 hours of incubation [4] | Enzyme activity: amount of released 4-methylumbelliferone [5] | Enzyme activity: amount of released 4-methylumbelliferone during 5 hours of incubation [5] | Enzyme activity: amount of released 4-methylumbelliferone [6] | Enzyme activity: amount of released 4-methylumbelliferone during 5 hours of incubation [6] | Enzyme activity: amount of released 4-methylumbelliferone [7] | Enzyme activity: amount of released 4-methylumbelliferone during 5 hours of incubation [7] | Enzyme activity: amount of released 4-methylumbelliferone [8] | Enzyme activity: amount of released 4-methylumbelliferone during 5 hours of incubation [8] | Enzyme activity: amount of released 4-methylumbelliferone [9] | Enzyme activity: amount of released 4-methylumbelliferone during 5 hours of incubation [9] | Enzyme activity: amount of released 4-methylumbelliferone [10] | Enzyme activity: amount of released 4-methylumbelliferone during 5 hours of incubation [10] | further results |
| --- | --- | --- | --- | --- | --- | --- | --- | --- | --- | --- | --- | --- | --- | --- | --- | --- | --- | --- | --- | --- | --- |
| Cc1cc(=O)oc2cc(O[C@@H]3OC[C@@H](O)[C@H](O)[C@H]3O)ccc12 [substrate 9, 4-methylumbelliferyl β-D-xyloside] | *** (2 ≦ ***) | 0 µmol | 0 µmol | 0 µmol | 0 µmol | ** (1 ≦ ** 2) | 0 µmol | *** (2 ≦ ***) | 0 µmol | 0 µmol | 0 µmol | * (0.4 ≦ * < 1) | 0 µmol | 0 µmol | 0 µmol | 0 µmol | 0 µmol | 0 µmol | 0 µmol | 0 µmol | Enzyme activity: amount of released 4-methylumbelliferone [11]: 0 µmol; Enzyme activity: amount of released 4-methylumbelliferone during 5 hours of incubation [11]: *** (2 ≦ ***); Enzyme activity: amount of released 4-methylumbelliferone [12]: 0 µmol; Enzyme activity: amount of released 4-methylumbelliferone during 5 hours of incubation [12]: *** (2 ≦ ***); Enzyme activity: amount of released 4-methylumbelliferone [13]: 0 µmol; Enzyme activity: amount of released 4-methylumbelliferone during 5 hours of incubation [13]: 0 µmol; Enzyme activity: amount of released 4-methylumbelliferone [14]: 0 µmol; Enzyme activity: amount of released 4-methylumbelliferone during 5 hours of incubation [14]: *** (2 ≦ ***) |
| CC(=O)N[C@H]1[C@H](Oc2ccc3c(C)cc(=O)oc3c2)O[C@H](COS(=O)(=O)O)[C@@H](O)[C@@H]1O [substrate 1, 4-methylumbelliferyl 7-6(sulfo-2-acetamido-2-deoxy-β-D-glucopyranoside)] | 0 µmol | 0 µmol | 0 µmol | 0 µmol | 0 µmol | 0 µmol | 0 µmol | 0 µmol | * (0.4 ≦ * < 1) | * (0.4 ≦ * < 1) | 0 µmol | 0 µmol | 0 µmol | 0 µmol | 0 µmol | 0 µmol | 0 µmol | 0 µmol | 0 µmol | 0 µmol | Enzyme activity: amount of released 4-methylumbelliferone [11]: 0 µmol; Enzyme activity: amount of released 4-methylumbelliferone during 5 hours of incubation [11]: 0 µmol; Enzyme activity: amount of released 4-methylumbelliferone [12]: 0 µmol; Enzyme activity: amount of released 4-methylumbelliferone during 5 hours of incubation [12]: 0 µmol; Enzyme activity: amount of released 4-methylumbelliferone [13]: 0 µmol; Enzyme activity: amount of released 4-methylumbelliferone during 5 hours of incubation [13]: 0 µmol; Enzyme activity: amount of released 4-methylumbelliferone [14]: * (0.4 ≦ * < 1); Enzyme activity: amount of released 4-methylumbelliferone during 5 hours of incubation [14]: 0 µmol |
